In patent publication EP3386957B1, “PROCESS FOR THE PURIFICATION OF 10-DEACETYL BACCATIN III” (RotaChrom Technológiai és Szolgálató Zártkörüen Müködö …, priority 2015, dated 2017):
Converted amounts (≈) assume the structure as drawn. Read-outs that look alike come from different tables or passages of the source.

Columns and labels:
Assay type in all cases: physicochemical
[1] = Solubility of 10-DAB III in solvents and biphasic solvent systems
From the text: (§1) As such a degree of solubility may only be achieved in a mixture of MIBK, acetone and water after heating, after cooling and shaking the substance crystalized (Margraff, 1995). The partition coefficient of 10-DAB III is around 6. […] The chromatogram according to Figure 3 presents a product purified in such a solvent system.
(§2) It was also surprising to experience that the biphasic system formed by the mixture of methyl tert-butyl ether (hereinafter: MTBE), acetone and water is also suitable for dissolving 10-DAB III, if their volumetric mixing ratio is approximately 4:4:3, in which the upper phase is a mixture of 40% MTBE, 50% acetone and 10% water, and the lower phase is a mixture of 40% water, 50% acetone and 10% MTBE. 10-DAB III is insoluble separately in MTBE and in water, but it dissolves in both phases of the aforementioned ternary solvent mixture, solubility in the upper phase is 50 mg/ml. […] Such contaminants on the basis of the HPLC method below are the RRT=0.68 and the RRT=0.87 contaminants.

[2] = Partition coefficient in biphasic CPC solvent systems
From the text: as §1, §2
Liquid chromatography or extraction performed with a chlorinated hydrocarbon is usually used for the separation of chlorophyll and related compounds. […] A solvent system that may be used for this may be the dichloromethane, methanol and water mixture at an approximate volumetric ratio of 3:4:3. In this solvent system the partition coefficient of 10-DAB III is 0.95, while that of the aforementioned problematic contaminants is around 0.4-0.5.

[3] = Selectivity of CPC solvent systems for contaminants of 10-DAB III (contaminants identified by HPLC relative retention time)
Protocol: The HPLC methods used for the analysis: • 1. Isocratic method • Column: Dr Maisch ReproSil-Pur C18-AQ (150x4.0 mm, 3 um) • Column thermostat: 35 °C • Flow rate: 0.75 ml/min • Eluent: 28% acetonitrile, 72% water, 0.1% acetic acid • Detection wavelength: 230 +/- 5 nm • Injected volume: 10 ul • 2. Gradient method • Colum: Phenomenex Kinetex C18 (100x3.0 mm, 2.6 um) • Column thermostat: 35 °C • Flow rate: 0.7 ml/min • Eluent A: water + 0.1% acetic acid Eluent B: acetonitrile Gradient program: 0 min 20% B, 5 min: 30% B, 11 min 40% B, 13 min 40% B, 14 min 20% B, 18 min 20% B • Detection wavelength: 230 +/- 5 nm • Injected volume: 5 ul
Table 3: the selectivity matrix of the individual methods according to the invention

| Structure (SMILES) | solubility ([1]; organic solvent or mixture, MTBE/acetone/water approximately 4:4:3, upper phase (40% MTBE, 50% acetone, 10% water), read-out: solubility in the upper phase) | solubility ([1]; separately in MEK or water) | solubility ([1]; separately in MTBE and in water) | solubility ([1]; upper phase of MEK/water biphasic system, organic solvent or mixture, MEK/water biphasic system, upper phase (MEK saturated with water), read-out: solubility in the upper phase) | partition coefficient ([2]; MEK/water biphasic system) | partition coefficient ([2]; MTBE/acetone/water approximately 4:4:3) | partition coefficient ([2]; dichloromethane, methanol and water approximately 3:4:3) | selectivity ([3]; CPC solvent mixture DCM/MeOH/water, Table 3) | selectivity ([3]; CPC solvent mixture MEK/water, isocratic HPLC method) | selectivity ([3]; CPC solvent mixture MEK/water, Table 3) | selectivity ([3]; CPC solvent mixture MTBE/acetone/water, isocratic HPLC method) | selectivity ([3]; prior-art system: mixture of methyl isobutyl ketone, acetone and water) |
| --- | --- | --- | --- | --- | --- | --- | --- | --- | --- | --- | --- | --- |
| CC(=O)O[C@@]12CO[C@@H]1C[C@H](O)[C@@]1(C)C(=O)[C@H](O)C3=C(C)[C@@H](O)C[C@@](O)([C@@H](OC(=O)c4ccccc4)[C@H]21)C3(C)C [10-DAB III, 10-deacetylbaccatin III] | 50 mg/mL (≈ 91.8 mM) | does not dissolve well | insoluble | 80 mg/mL (≈ 147 mM) | around 6 | around 2 | 0.95 |  |  |  |  |  |
| CC(=O)O[C@@]12CO[C@@H]1C[C@H](O)[C@@]1(CO)C(=O)[C@H](O)C3=C(C)[C@@H](O)C[C@@](O)([C@@H](OC(=O)c4ccccc4)[C@H]21)C3(C)C [RRT=0.48, 19-OH-10-deacetylbaccatin III] |  |  |  |  |  |  |  | + | great selectivity | +++ (high selectivity) | great selectivity | excellent selectivity |
